Results from US20260250318A1, “COMPOSITIONS AND METHODS FOR CROSSING THE BLOOD BRAIN BARRIER” (VOYAGER THERAPEUTICS, INC., priority 2022, published 2026).

Columns and labels:
brain = experiment: Matured TTM-001 and TTM-002 variants, NGS enrichment in mouse brain; assay type: in vivo, mice; conditions: relative to AAV9 control
[1] = tested on: brains, heart, liver, muscle, and DRG of the NHPs; experiment: Maturation of TTM-001 and TTM-002 capsids, NGS enrichment in NHP tissues; assay type: in vivo; conditions: relative to AAV9 control
Method in brief: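 Variants carry mutations within and flanking the loop IV peptide insert: positions 450–466 were triplet-randomized, while positions 449–466 received low-frequency point mutations. The combined pool went into two NHPs, and each peptide was scored by NGS enrichment ratio against AAV9.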

[2] = NGS fold-enrichment, mouse brain
[3] = NGS fold-enrichment of RNA, NHP brain
[4] = NGS fold-enrichment, NHP liver DNA
[5] = NGS fold-enrichment, NHP liver RNA
[6] = NGS fold-enrichment, NHP muscle
[7] = NGS fold-enrichment, brain of mice
[8] = NGS fold-enrichment, DRG of NHPs
[9] = NGS fold-enrichment, RNA, brain of NHPs
[10] = NGS fold-enrichment, heart of NHPs
[11] = NGS fold-enrichment, liver DNA of NHPs
[12] = NGS fold-enrichment, liver RNA of NHPs
[13] = NGS fold-enrichment, muscle of NHPs
[14] = NGS fold-enrichment of matured AAV capsid variants, NHP brain, RNA

Sequence	Fold Enrichment relative to AAV9, Brain (Mouse) (brain; [2]) [fold]	Fold Enrichment relative to AAV9, Brain (NHP) [1, 3] [fold]	Fold Enrichment relative to AAV9, DRG (NHP) ([1]; NGS fold-enrichment, NHP DRG) [fold]	Fold Enrichment relative to AAV9, Heart (NHP) ([1]; NGS fold-enrichment, NHP heart) [fold]	Fold Enrichment relative to AAV9, Liver DNA (NHP) [1, 4] [fold]	Fold Enrichment relative to AAV9, Liver RNA (NHP) [1, 5] [fold]	Fold Enrichment relative to AAV9, Muscle (NHP) [1, 6] [fold]	Fold Enrichment relative to AAV9, Brain (Mouse) (brain; [7]) [fold]	Fold Enrichment relative to AAV9, DRG (NHP) [1, 8] [fold]	Fold Enrichment relative to AAV9, Brain (NHP) [1, 9] [fold]	Fold Enrichment relative to AAV9, Heart (NHP) [1, 10] [fold]	Fold Enrichment relative to AAV9, Liver DNA (NHP) [1, 11] [fold]	Fold Enrichment relative to AAV9, Liver RNA (NHP) [1, 12] [fold]	Fold Enrichment relative to AAV9, Muscle (NHP) [1, 13] [fold]	further results
KSELGHDSPHKSGQNQQT	13.285	107.059	0.000	0.005	0.055	0.000	0.000	–	–	–	–	–	–	–	–
KTINGHDSPHKSVQNHLN	14.557	196.758	0.000	0.000	0.000	0.000	0.000	–	–	–	–	–	–	–	–
KTIIGSGSPHSKAQNRHT	210.515	217.176	0.000	0.000	0.000	0.000	0.000	210.515	0.000	217.176	0.000	0.000	0.000	0.000	–
KTINGQDSPHKSGQHQQA	5.582	85.657	1.127	0.579	0.557	0.193	0.000	–	–	–	–	–	–	–	–
KSINGYDSPHKSGQTQQT	4.497	79.227	1.817	0.226	1.148	0.000	0.000	–	–	–	–	–	–	–	–
KTEFVSGSPHSKAQNQQT	–	–	–	–	–	–	–	69.788	0.000	59.306	0.000	0.276	0.196	0.000	–
KTVNGSGSPHSKAQNQWT	–	–	–	–	–	–	–	–	–	–	–	–	–	–	Fold Enrichment relative to AAV9, Brain (Mouse) (brain; mouse brain): 69.906 fold; Fold Enrichment relative to AAV9, Brain (NHP) [1, 14]: 56.823 fold; Fold Enrichment relative to AAV9, DRG (NHP) ([1]; NHP DRG): 0.000 fold; Fold Enrichment relative to AAV9, Heart (NHP) ([1]; NHP heart): 0.000 fold; Fold Enrichment relative to AAV9, Liver DNA (NHP) ([1]; NHP liver, DNA): 0.219 fold; Fold Enrichment relative to AAV9, Liver RNA (NHP) ([1]; NHP liver, RNA): 0.000 fold; Fold Enrichment relative to AAV9, Muscle (NHP) ([1]; NHP muscle): 0.299 fold
KTVKGSGSPHSKAQDQQT	–	–	–	–	–	–	–	58.114	0.000	61.175	0.041	0.090	0.432	0.000	–
KTEGLSGSPHSKAQNQQT	–	–	–	–	–	–	–	–	–	–	–	–	–	–	Fold Enrichment relative to AAV9, Brain (Mouse) (brain; mouse brain): 104.529 fold; Fold Enrichment relative to AAV9, Brain (NHP) [1, 14]: 52.891 fold; Fold Enrichment relative to AAV9, DRG (NHP) ([1]; NHP DRG): 0.000 fold; Fold Enrichment relative to AAV9, Heart (NHP) ([1]; NHP heart): 0.000 fold; Fold Enrichment relative to AAV9, Liver DNA (NHP) ([1]; NHP liver, DNA): 0.155 fold; Fold Enrichment relative to AAV9, Liver RNA (NHP) ([1]; NHP liver, RNA): 0.104 fold; Fold Enrichment relative to AAV9, Muscle (NHP) ([1]; NHP muscle): 0.020 fold
